{"source": "patent US8435569B2", "about": "“Pharmaceutical composition comprising at least one thrombolytic agent (A) and at least one gas (B) selected from the group consisting of nitrous oxide, argon, xenon, helium, neon” (NNOXE Pharmaceutiques Inc., priority 2007, dated 2013)", "key": {"t-PA-induced clot lysis": {"tested_on": "t-PA-induced clot lysis", "assay": "In vitro t-PA-induced clot lysis of rat blood clots", "assay_type": "biochemical", "conditions": "for effect on t-PA-induced clot lysis: t-PA 0.008 mg/mL", "procedure": "In vitro experiments (FIG. 2) were performed using Male adult Sprague-Dawley rats (500±50 g). The rats were killed by decapitation. A volume of 500 μL of rat blood was transferred in different pre-weighed sterile Eppenforf™ tubes of 1.5 mL volume and incubated at 37° C. for 15 hours.\nAfter clot formation, serum was completely removed, aspired out without disturbing the clot formed, and each tube was again weighed to determine the clot weight (clot weight=weight of tube containing clot−weight of tube alone). Each tube containing clot was properly labeled and filled with 1 mL of a saline solution containing 0.008 mg/mL of t-PA, saturated beforehand with medical air (control), nitrous oxide, xenon, argon or a mixture of nitrous oxide and argon. Some tubes were filled with saline alone saturated with medical air to serve as a negative control. All tubes were then incubated at 37° C. for 1 h 30 min. After incubation, the fluid obtained was removed and tubes were again weighed to observe the difference in weight after clot disruption. Difference obtained in weight taken before and after clot lysis was expressed as a percentage of clot lysis.\n(§1) The effects of oxygen on the catalytic activity and thrombolytic properties of t-PA were also evaluated in vitro and in vivo according to the methods described above."}, "human recombinant t-PA": {"molecular_target": "human recombinant t-PA (Homo sapiens, UniProt P00750)", "sequence (P00750 36-562)": "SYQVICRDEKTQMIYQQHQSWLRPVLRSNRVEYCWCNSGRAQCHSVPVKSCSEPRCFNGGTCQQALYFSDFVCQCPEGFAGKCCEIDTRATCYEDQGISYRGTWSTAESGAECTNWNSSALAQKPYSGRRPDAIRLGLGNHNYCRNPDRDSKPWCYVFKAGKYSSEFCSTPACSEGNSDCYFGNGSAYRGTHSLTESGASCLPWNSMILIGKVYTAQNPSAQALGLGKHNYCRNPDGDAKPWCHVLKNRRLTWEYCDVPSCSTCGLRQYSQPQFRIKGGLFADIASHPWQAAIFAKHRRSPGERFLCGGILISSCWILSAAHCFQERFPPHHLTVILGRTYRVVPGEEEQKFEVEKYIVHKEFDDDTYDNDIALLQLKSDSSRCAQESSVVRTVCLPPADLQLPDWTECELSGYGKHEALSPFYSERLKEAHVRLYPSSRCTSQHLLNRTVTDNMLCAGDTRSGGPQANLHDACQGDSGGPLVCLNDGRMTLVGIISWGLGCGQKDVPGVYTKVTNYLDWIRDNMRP", "assay": "Catalytic activity of t-PA (initial rate method, spectrophotometer)", "assay_type": "biochemical", "procedure": "All experiments were performed as follows: Fifty (50) μL of human recombinant t-PA was incubated with 50 μL of its substrate: methylsulfonyl-D-phenyl-glycil-arginine-7-amino-4-methylcoumarin acetate. For plasmin, twenty five (25) μL of human recombinant plasmin was incubated with 25 μL of its substrate: H-D-norleucyl-hexahydrotyrosol-lysine-para-nitroanilide diacetate. The kinetics of the catalytic activity of t-PA or plasmin was immediately measured using a spectrophotometer, and then estimated using the initial rate method. Solutions of t-PA or plasmin and their substrates were saturated with air (control), or with nitrous oxide, argon, xenon, or helium at concentrations of 15 vol % to 75 vol %, the remainder being oxygen at 25 vol %, completed with nitrogen when necessary.\nFor all gas mixtures in FIG. 1, the remainder is 25 vol % oxygen completed with nitrogen if necessary.\nas §1"}, "[1]": {"tested_on": "middle cerebral artery occlusion using an autologous blood clot", "assay": "In vivo thrombolysis/reperfusion after embolic middle cerebral artery occlusion using an autologous blood clot", "set-up": "species or system rat", "procedure": "In vivo experiments (FIG. 3) were performed in Male adult Sprague-Dawley rats (290±40 g). The animals had free access to food and water in an animal room at constant temperature and humidity. Rats monitored for their physiological functions were anesthesized, and subjected to cerebral ischemia by occlusion of the middle cerebral artery using an autologus blood clot obtained from whole blood withdrawn from the rat 24 h prior surgery, allowed to clot at 37° C. for 2 h, and then and stored at 4° C. for 22 h.\nEmbolic occlusion of the middle cerebral artery was induced using an autologous blood clot. Briefly, a blood clot of 4 cm long was injected with a volume of […] of saline into the middle cerebral artery. Forty-five minutes after occlusion of the middle cerebral artery, the rats were given t-PA intravenously (0.9 mg/kg; 10% bolus, 90% perfusion during 45 minutes) in order to induce thrombolysis. Five minutes before the bolus injection and all along the perfusion period with t-PA, the rats were treated with medical air (controls) or xenon. Then, the catheter was removed, and all the incisions closed. After the experiment, the rats were allowed moving freely in their home cage with free access to food and water.\nas §1"}, "[2]": {"tested_on": "NMDA-induced neuronal death", "assay": "NMDA-induced neuronal death after intracerebral injection, with or without t-PA", "assay_type": "in vivo, rat", "procedure": "Experiments were conducted in Male adult Sprague-Dawley rats. The rats were given, under short halothane-oxygen anesthesia of 10 min duration, an intracerebral injection of 50 nmol NMDA, alone or in combination with 3 mg t-PA, in […] saline solution.\nOne hour later, the rats were treated for a 3 h period in an environmental chamber saturated with nitrous oxide at 50 vol % with the remainder being oxygen at 25 vol % completed with nitrogen.\nForty-eight (48) hours after NMDA injection, rats were killed by decapitation under halothane-oxygen anesthesia. The brain was rapidly removed, frozen in isopentane, placed at −80° C. Coronal brain sections (20 μm) were then cryostat-cut, mounted on gelatinized slides, and stained with thionin. Brain sections colored with thionin were then digitized on a PC computer, and analyzed with an image analyzer (ImageJ® software, Scion corp., USA) by two blinded scientists. Values were averaged; value differences were no more than 10% (mean: 0.5±1%). The lesion areas were delineated by the pallor of histological staining in the necrotic tissue compared with the surrounding healthy tissue. The infarction volume was calculated by integration over the whole brain of the infarcted surfaces, using the sterotaxic atlas for the rat brain of Paxinos and Watson (Academic Press, 1998)."}, "[3]": {"conditions": "solutions saturated with gas at 15 vol % to 75 vol %, remainder 25 vol % oxygen completed with nitrogen, vs air control"}, "[4]": {"conditions": "gas at 50 vol %, 37° C., 1 h 30 min"}}, "data": [{"compound": "O=O", "note": "[Oxygen, oxygen]", "values": [{"measurement": "effect on in vitro thrombolytic action of t-PA", "setting": "t-PA-induced clot lysis; oxygen at 100 vol %", "result": "facilitates"}, {"measurement": "effect on the catalytic activity of t-PA", "setting": "human recombinant t-PA; oxygen at 100 vol %", "result": "increases"}, {"measurement": "effect on in vivo thrombolytic action of t-PA", "setting": "[1]; oxygen at 100 vol %", "result": "facilitates"}]}, {"compound": "[Ar]", "note": "[argon]", "values": [{"measurement": "effect on t-PA-induced clot lysis", "setting": "t-PA-induced clot lysis; gas at 30 vol %, 37° C., 1 h 30 min", "result": "reduce"}, {"measurement": "effect on the catalytic activity of t-PA", "setting": "human recombinant t-PA; [3]", "result": "reduced"}]}, {"compound": "[He]", "note": "[helium]", "values": [{"measurement": "effect on t-PA-induced clot lysis", "setting": "t-PA-induced clot lysis; gas at 75 vol %, 37° C., 1 h 30 min", "result": "reduce"}, {"measurement": "effect on the catalytic activity of t-PA", "setting": "human recombinant t-PA; [3]", "result": "reduced"}]}, {"compound": "[N-]=[N+]=O", "note": "[nitrous oxide]", "values": [{"measurement": "effect on t-PA-induced clot lysis", "setting": "t-PA-induced clot lysis; [4]", "result": "reduce"}, {"measurement": "reduction of neuronal death induced by co-administration of t-PA and NMDA", "setting": "[2]; nitrous oxide 50 vol % for 3 h, 1 h after 50 nmol NMDA + t-PA intracerebral, infarction volume at 48 h", "result": 45, "unit": "%"}, {"measurement": "reduction of neuronal death produced by NMDA", "setting": "[2]; nitrous oxide 50 vol % for 3 h, 1 h after 50 nmol NMDA intracerebral, infarction volume at 48 h", "result": 22, "unit": "%"}, {"measurement": "reduction of the proteolytic action of t-PA responsible for the enhancement of neuronal death", "setting": "[2]; nitrous oxide 50 vol %, difference 45%−22%", "result": "approximately 23%"}, {"measurement": "effect on the catalytic activity of t-PA", "setting": "human recombinant t-PA; [3]", "result": "reduced"}]}, {"compound": "[Xe]", "note": "[xenon]", "values": [{"measurement": "effect on t-PA-induced clot lysis", "setting": "t-PA-induced clot lysis; [4]", "result": "reduce"}, {"measurement": "effect on the catalytic activity of t-PA", "setting": "human recombinant t-PA; [3]", "result": "reduced"}, {"measurement": "reperfusion rate versus control rats treated with t-PA and medical air", "setting": "[1]; xenon at 75 vol % from 5 min before bolus and during t-PA perfusion (0.9 mg/kg i.v.)", "result": "lower reperfusion rate"}]}, {"compound": "t-PA: human recombinant tissue-type plasminogen activator, a thrombolytic serine protease", "values": [{"measurement": "percentage of clot lysis", "setting": "t-PA-induced clot lysis; t-PA 0.008 mg/mL in saline saturated with medical air (control), 37° C., 1 h 30 min", "result": "around 23%"}, {"measurement": "effect on NMDA-induced neuronal death", "setting": "[2]; t-PA co-administered with 50 nmol NMDA intracerebrally", "result": "increases"}, {"measurement": "reperfusion", "setting": "[1]; t-PA 0.9 mg/kg intravenously 45 min after occlusion, vs rats not treated with t-PA", "result": "exhibit reperfusion"}]}]}
